Results published in patent US9156822B2, “Functionally selective ligands of dopamine D2 receptors” (The University of North Carolina at Chapel Hill, priority 2010, dated 2015).
Like-named read-outs stand apart in the source and are kept apart here.

Columns and labels:
[1] = molecular target: hD2 receptors (Homo sapiens (Human), UniProt P14416); assay: D2 mediated cAMP GloSensor assay; format: cell-based; conditions: for Emax: read-out: cAMP (GloSensor) Emax; as to cAMP (GloSensor) activity in words (merged EC50/Emax cell): key: neutral: Neutral ligands are either antagonists or are inactive
Sequence of hD2 receptors (P14416 whole entry): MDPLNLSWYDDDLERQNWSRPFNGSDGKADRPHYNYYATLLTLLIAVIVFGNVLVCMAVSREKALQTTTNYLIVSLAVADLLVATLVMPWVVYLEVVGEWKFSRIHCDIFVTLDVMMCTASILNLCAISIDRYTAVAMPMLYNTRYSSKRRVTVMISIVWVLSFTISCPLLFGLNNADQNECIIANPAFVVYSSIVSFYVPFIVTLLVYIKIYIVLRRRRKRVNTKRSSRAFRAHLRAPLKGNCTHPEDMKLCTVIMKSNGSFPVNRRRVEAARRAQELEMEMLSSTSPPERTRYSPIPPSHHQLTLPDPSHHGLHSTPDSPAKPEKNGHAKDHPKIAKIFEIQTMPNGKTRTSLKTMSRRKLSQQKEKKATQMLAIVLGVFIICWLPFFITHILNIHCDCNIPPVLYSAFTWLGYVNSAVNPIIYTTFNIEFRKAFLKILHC

[2] = molecular target: T1, D2 receptors (Homo sapiens (Human), UniProt P14416); assay: CHO-D2 radioligand binding assay ([3H]N-methylspiperone competition); conditions: read-out: D2 Binding Ki ± SEM
Target sequence in this assay (P14416 whole entry): as above

[3] = molecular target: T1, D2 receptors; assay: D2 β-arrestin recruitment (Tango) assay; format: cell-based
Description: The next day, cells were plated in white, clear-bottom, 384-well plates (Greiner, 10,000 cells/well, 50 μl/well) in DMEM containing 1% dialyzed fetal bovine serum. […] Data were normalized to vehicle (0%) and quinpirole (100%) controls and regressed using the sigmoidal dose-response function built into GraphPad Prism 4.0.
Target sequence in this assay (P14416 whole entry, looked up): as the sequence (P14416 whole entry) above

[4] = molecular target: hD2L dopamine receptor (Homo sapiens (Human), UniProt P14416); assay: pERK high-content assay; format: cell-based
Sequence of hD2L dopamine receptor (P14416 whole entry): as above
Description: On day 1 of the assay, cells were seeded onto black clear-bottom tissue culture-treated 96-well plates (Greiner, BioOne). On day 2 of the assay, cells were washed with serum-free medium (Ham's F-12, penicillin and streptomycin) and incubated in 100 μL serum-free medium overnight.
Immunofluorescence: Automatic multichannel pipetters were used for liquid handling and multichannel vacuum manifolds for aspirations. Each tested concentration was typically measured in triplicate or quadruplicate. For concentration curves, half-log-dilutions were used. Drug dilutions were prepared in stimulation medium (serum-free medium, 100 mg/L ascorbic acid). 100 μM dopamine and 1 μM PMA (phorbol 12-myristate 13-acetate) were used as positive controls. Medium only was used as a negative control. Specificity of the response was confirmed by pretreatment for 5 min with 10 μM of the antagonist spiperone and in experiments using wild type CHO cells.
Cells were stimulated on day 3 by fast addition of 50 μL equilibrated 3× drug dilutions in a tissue culture incubator for 5 min. Plates were placed on ice, the medium was aspirated, and 100 μL/well of freshly prepared ice-cold fixing buffer (4% formaldehyde and 0.5 mM CaCl2 in PBS) solution was added. After 30 min fixing at room temperature, the plates were washed with 350 μL/well PBS/Ca (0.5 mM CaCl2 in PBS) and permeabilized for 20 min in 100 μL/well 0.3% Triton X-100 in PBS/Ca. […] Plates were washed three times with 250 μL/well washing buffer, post-fixed for 10 min in fixing buffer, washed with 250 μl PBS/Ca, filled with 200 μL/well PBS/Ca, sealed with transparent adhesive plate seals, and stored at 4° C.
The Alexa594 light path was used for the target signal, Alexa488 for whole cell staining, and Hoechst for the nuclear staining. Images were analyzed using the CellProfiler software. […] Concentration curves were analyzed in GraphPad Prism by fitting against a sigmoidal dose-response model and normalization to the dopamine curve.

[5] = system: wild-type and β-arrestin-2 knockout mice; conditions: β-arrestin-2 knockout mice, i.p., 5.0 mg/kg (haloperidol 2.0 mg/kg), 30 and 60 min
[6] = HEK293T, isoproterenol-stimulated cAMP
[7] = normalized to quinpirole, negative = inverse agonist
[8] = CHO-D2 membranes, [3H]N-methylspiperone
[9] = HTLA cells, read-out: β-arrestin (Tango) EC50
[10] = normalized to quinpirole (100%)

Row | Structure (SMILES) | melting point [°C] | EC50 [1, 6] [nM] | Emax [1, 7] [%] | Ki [2, 8] [nM] | β-arrestin (Tango) % activ at 1 μM [3] [%] | EC50 [3, 9] [nM] | Emax [3, 10] [%] | EC50 [1] [nM] | Emax [1] [%] | Ki [2] [nM] | cAMP (GloSensor) activity in words (merged EC50/Emax cell) [1] | EC50 ([4]; CHO-hD2L cells, read-out: p-ERK EC50) [nM] | Emax ([4]; normalized to dopamine, read-out: p-ERK Emax) [%] | EC50 [3] [nM] | β-arrestin (Tango) Emax [3, 10] [%] | catalepsy (latency to move, inclined screen test) [5]
1 | Clc1cccc(N2CCN(CCCOc3ccc4cn[nH]c4c3)CC2)c1Cl [Compound 20, 6-(3-(4-(2,3-dichlorophenyl)piperazin-1-yl)propoxy)-1H-indazole] | 159 to 161 | 9.7 | -22 | 104 ± 13 | 45 | 59 | 90 | – | – | – | – | – | – | – | – | –
2 | Clc1cccc(C2CCN(CCCCOc3ccc4scnc4c3)CC2)c1Cl [Compound 21, 5-(4-(4-(2,3-dichlorophenyl)piperidin-1-yl)butoxy)benzo[d]thiazole] | 79 to 81 | – | – | – | 26 | 82 | 81 | 21 | -27 | 42 ± 4 | – | – | – | – | – | –
3 | Clc1cccc(C2CCN(CCCOc3ccc4scnc4c3)CC2)c1Cl [Compound 22, 5-(3-(4-(2,3-dichlorophenyl)piperidin-1-yl)propoxy)benzo[d]thiazole] | – | – | – | 75 ± 12 | 59 | – | – | – | – | – | neutral | 58 | 50 | 51 | 100 | –
4 | Clc1cccc(N2CCN(CCCOc3ccc4scnc4c3)CC2)c1Cl [Compound 23, 5-(3-(4-(2,3-dichlorophenyl)piperazin-1-yl)propoxy)benzo[d]thiazole] | 127 to 129 | 9.8 | -16 | 30 ± 5 | 48 | 107 | 91 | – | – | – | – | – | – | – | – | –
5 | O=C1CCc2ccc(Oc3cccc(CN4CCN(c5cccc(Cl)c5Cl)CC4)c3)cc2N1 [Compound 30, 7-(3-((4-(2,3-dichlorophenyl)piperazin-1-yl)methyl)phenoxy)-3,4-dihydro quinolin-2(1H)-one] | 182 to 183 | – | – | 113 ± 18 | 9 | – | 58 | – | – | – | neutral | – | – | 297 | – | –
6 | O=C1NCCc2ccc(OCCCCN3CCC(c4cccc(Cl)c4Cl)CC3)cc21 [Compound 33, 7-(4-(4-(2,3-dichlorophenyl)piperidin-1-yl)butoxy)-3,4-dihydroisoquinolin-1(2H)-one] | 113 to 114 | – | – | 20 ± 3 | 26 | – | 64 | – | – | – | neutral | – | – | 24 | – | –
7 | Clc1cccc(N2CCN(CCCCOc3ccc4scnc4c3)CC2)c1Cl [Compound 36, 5-(4-(4-(2,3-dichlorophenyl)piperazin-1-yl)butoxy)benzo[d]thiazole] | 93 to 94.5 | – | – | 17 ± 3 | 13 | – | 64 | – | – | – | neutral | – | – | 59 | – | –
8 | O=C(CCCN1CCC(O)(c2ccc(Cl)cc2)CC1)c1ccc(F)cc1 [haloperidol, reference compound] | – | – | – | – | – | – | – | – | – | – | – | – | – | – | – | inducing catalepsy
